Laboratory results reported in the supplement of paper PMC8960247.
Where a name gives a salt, the structure may show the parent alone. ± gives the standard error.

Tests used:
[1] = tested on: 621-102 (TSC2-deficient); test: relative viability vs DMSO; higher = less cytotoxic; conditions: serum: 10% FBS, 72 h
[2] = tested on: 621-103 (TSC2-rescued); test: as above; conditions: serum: 10% FBS, 72 h
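Also: immortalized renal angiomyolipoma cells stably carrying empty vector or TSC2, dosed in 384-well plates in DMEM, viability normalized to vehicle-treated wells within each plate.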

Row | Structure (SMILES) | relative viability ([1]; 0.0001 µM) [%] | relative viability ([1]; 0.001 µM) [%] | relative viability ([1]; 0.01 µM) [%] | relative viability ([1]; 0.1 µM) [%] | relative viability ([1]; 1 µM) [%] | relative viability ([1]; 10 µM) [%] | relative viability ([2]; 0.0001 µM) [%] | relative viability ([2]; 0.001 µM) [%] | relative viability ([2]; 0.01 µM) [%] | relative viability ([2]; 0.1 µM) [%] | relative viability ([2]; 1 µM) [%] | relative viability ([2]; 10 µM) [%]
1 | COc1cc2ncnc(-n3nc(-c4ccccn4)nc3N)c2cc1OC | 101 ± 1.5 | 103 ± 2.7 | 107 ± 2.2 | 98.84 ± 0.53 | 94.28 ± 0.36 | 49.6 ± 1.6 | 106 ± 1.7 | 107 ± 2.5 | 109 ± 4 | 108.3 ± 0.77 | 110.4 ± 0.79 | 48.2 ± 3.8
2 | Cn1cnc2c(F)c(Nc3ccc(Br)cc3Cl)c(C(=O)NOCCO)cc21 [AZD6244 (Selumetinib)] | 84 ± 9.2 | 89.89 ± 0.22 | 96.8 ± 1.1 | 98.9 ± 5.4 | 84.7 ± 1.2 | 88.21 ± 0.5 | 101.6 ± 0.39 | 100.1 ± 0.89 | 105.2 ± 1 | 106 ± 1.1 | 104 ± 2.8 | 89 ± 2.5
3 | CC(C)CC(=O)Nc1n[nH]c2c1CN(C(=O)C1CCN(C)CC1)C2(C)C | 105.5 ± 0.63 | 109 ± 4 | 103 ± 2.3 | 93.5 ± 0.62 | 79 ± 1.2 | 13.5 ± 0.25 | 100.3 ± 0.33 | 101 ± 2 | 102 ± 1.2 | 102 ± 1.3 | 94.4 ± 1.7 | 22.5 ± 1.5
4 | Cc1[nH]c(/C=C2\C(=O)Nc3ccccc32)c(C)c1CCC(=O)O [TSU-68] | 94 ± 1.4 | 106 ± 3.3 | 119 ± 3.6 | 110 ± 2.1 | 91.7 ± 3.8 | 95.8 ± 2.4 | 101 ± 1.9 | 103 ± 1.2 | 101 ± 2.4 | 102 ± 1.7 | 102 ± 1.9 | 95.7 ± 1.1
5 | Cc1c(NC(=O)OC[C@@H]2COCCN2)cn2ncnc(Nc3ccc4c(cnn4Cc4cccc(F)c4)c3)c12 | 101 ± 2.7 | 104 ± 2 | 97.6 ± 2 | 104.2 ± 0.79 | 96.3 ± 2.8 | 81.33 ± 0.65 | 100.9 ± 0.54 | 100 ± 1.2 | 102 ± 1.5 | 101.3 ± 0.88 | 101 ± 1.9 | 82.5 ± 5.9
6 | Nc1nc(F)nc2c1ncn2[C@@H]1O[C@H](COP(=O)(O)O)[C@@H](O)[C@@H]1O [Fludarabine Phosphate] | 98.1 ± 1.6 | 105 ± 1.1 | 101.7 ± 0.47 | 106 ± 1.9 | 96.4 ± 7.2 | 94 ± 1.7 | 104 ± 2.1 | 104 ± 2.7 | 103.3 ± 0.34 | 102.6 ± 0.82 | 100 ± 1.7 | 89.1 ± 6.1
7 | NC(=O)N1c2ccccc2C=Cc2ccccc21 [Carbamazepine (Carbatrol)] | 93.1 ± 3.9 | 96.7 ± 3.8 | 93.3 ± 3 | 101.1 ± 0.14 | 108.4 ± 0.97 | 94.54 ± 0.19 | 101.9 ± 0.54 | 105.8 ± 0.3 | 103 ± 1.8 | 107.7 ± 0.39 | 105 ± 0.35 | 98.871 ± 0.053
8 | CS(=O)(=O)CCNCc1ccc(-c2ccc3ncnc(Nc4ccc(OCc5cccc(F)c5)c(Cl)c4)c3c2)o1 [Lapatinib Ditosylate] | 102.2 ± 0.43 | 100 ± 1.8 | 110 ± 2.3 | 101.41 ± 0.072 | 103 ± 2.5 | 82.9 ± 3.4 | 97.35 ± 0.2 | 96.4 ± 3.8 | 104 ± 1.5 | 101 ± 3.3 | 99.1 ± 4 | 48.9 ± 1.6
9 | CN(C)Cc1ccc(-c2nc3cccc4c3n2CCNC4=O)cc1 | 125 ± 2.7 | 120.04 ± 0.068 | 127 ± 1.8 | 119 ± 5 | 118 ± 2.8 | 110 ± 1.7 | 103.8 ± 0.6 | 101.41 ± 0.034 | 102 ± 1.3 | 105 ± 1.6 | 103 ± 0.17 | 97.7 ± 0.77
10 | CNC(=O)c1ccccc1Sc1ccc2c(/C=C/c3ccccn3)n[nH]c2c1 [Axitinib] | 102 ± 3.9 | 104 ± 1.7 | 113 ± 0.88 | 109 ± 3.8 | 103.5 ± 0.7 | 55 ± 0.8 | 86.7 ± 7.2 | 97.7 ± 3.4 | 100 ± 0.42 | 102 ± 1.1 | 98.7 ± 1.9 | 40.7 ± 1.5
11 | C/C(=C\C(=O)Nc1ccccc1C(=O)O)c1ccc2ccccc2c1 [BIBR1532] | 93.51 ± 0.69 | 98.3 ± 0.93 | 112 ± 5.2 | 105.7 ± 1 | 95.36 ± 0.93 | 87.4 ± 2.7 | 110 ± 3.1 | 98.3 ± 5 | 104.2 ± 0.53 | 103 ± 1.3 | 99.8 ± 0.11 | 96.4 ± 1.2
12 | CN(C/C=C/C#CC(C)(C)C)Cc1cccc2ccccc12 [Terbinafine HCl] | 96.9 ± 2.1 | 97 ± 1.5 | 92 ± 0.96 | 94.1 ± 2.5 | 101 ± 3 | 91.3 ± 3.5 | 101 ± 3.3 | 99.3 ± 5.4 | 104 ± 2.1 | 101 ± 1.3 | 101 ± 1.3 | 97.22 ± 0.58
13 | CC1(COc2ccc3c(c2)ncn3-c2ccc3cccc(N4CCC(N)CC4)c3n2)COC1 | 109 ± 1.2 | 98.7 ± 1.8 | 109 ± 4.7 | 98.43 ± 0.71 | 67.8 ± 1.8 | 2.96 ± 0.37 | 96 ± 0.22 | 111.5 ± 0.64 | 110 ± 3.6 | 106 ± 3.9 | 77.4 ± 2.8 | 4.95 ± 0.59
14 | COc1cc2/c(=N/c3ccc(Br)cc3F)nc[nH]c2cc1OCC1CCN(C)CC1 [Vandetanib] | 94.4 ± 4.3 | 101 ± 3.8 | 109 ± 3.6 | 115 ± 1.7 | 102 ± 1.1 | 33.9 ± 2.9 | 102 ± 2.5 | 99.63 ± 0.8 | 98.84 ± 0.35 | 97.74 ± 0.94 | 98.3 ± 0.93 | 11.4 ± 1.8
15 | Cc1ccc(S(=O)(=O)OCC(=O)Nc2ccc(C(=O)O)c(O)c2)cc1 [S31-201] | 119.8 ± 0.59 | 125 ± 1.4 | 123 ± 3.5 | 121 ± 3.3 | 112 ± 1.6 | 119.2 ± 0.71 | 99.4 ± 2 | 98.17 ± 0.7 | 104 ± 2.1 | 102.7 ± 0.83 | 100 ± 1.8 | 101 ± 1.9
16 | CC[C@H]1OC(=O)[C@H](C)[C@@H](O[C@H]2C[C@@](C)(OC)[C@@H](O)[C@H](C)O2)[C@H](C)[C@@H](O[C@@H]2O[C@H](C)C[C@H](N(C)C)[C@H]2O)[C@](C)(OC)C[C@@H](C)C(=O)[C@H](C)[C@@H](O)[C@]1(C)O [Clarithromycin (Biaxin,Klacid)] | 118 ± 2 | 113 ± 2.8 | 108 ± 0.65 | 115 ± 2.5 | 105 ± 0.45 | 98.8 ± 1.5 | 106 ± 2 | 91.4 ± 2.9 | 104 ± 1.4 | 102 ± 1.1 | 102 ± 3.7 | 93.43 ± 0.4
17 | COc1ccccc1N1CCN(CCN(C(=O)C2CCCCC2)c2ccccn2)CC1 | 108 ± 0.74 | 102.3 ± 0.41 | 100 ± 1.5 | 104.2 ± 0.32 | 97.19 ± 0.27 | 99.4 ± 1 | 102.1 ± 1 | 99 ± 5.8 | 99.5 ± 5.7 | 110 ± 1.8 | 108 ± 1.8 | 98.5 ± 2.6
18 | Nc1ccccc1NC(=O)c1ccc(CNC(=O)OCc2cccnc2)cc1 [MS-275] | 103 ± 3.7 | 109.1 ± 0.37 | 96.5 ± 1 | 82.7 ± 3.8 | 83 ± 2.6 | 64.11 ± 0.47 | 100.1 ± 0.8 | 99.4 ± 1.4 | 98.42 ± 0.37 | 95.9 ± 1.2 | 81.09 ± 0.74 | 39.1 ± 0.61
19 | O=C1[C@H](Cc2ccc(O)cc2)N2C(=O)CCN(C(=O)NCc3ccccc3)[C@H]2CN1Cc1cccc2ccccc12 [ICG-001] | 116 ± 2.7 | 105.3 ± 0.41 | 106 ± 1.1 | 102 ± 4.2 | 98.9 ± 2.3 | 52.9 ± 0.89 | 105 ± 2.9 | 109 ± 7.1 | 108.7 ± 0.74 | 103 ± 1.3 | 109 ± 1.5 | 37.8 ± 0.69
